# “And” between values parts separate entries of the source, which are not always exact repeats. Equal entries are not always repeated. “Also recorded” adds a separate entry of the source. Structures can show the parent of a compound that is named as a salt. Where a SMILES comes first, the peptide text is derived from it. The star is where a group is joined. Cbz = O=C(OCc1ccccc1)*
# Tested on: N-acyl-L-proline acylase
# Experiment: Substrate specificity: hydrolysis of N-acyl amino acids and proline derivatives
# Type: biochemical, Comamonas testosteroni DSM 5416
# Settings: not given
# Protocol: The activity of acylase was determined with various N-acetyl-L-amino acids and N-chloroacetyl-L-amino acids in a reaction batch with the following composition:
# The reaction temperature was 30° C. and the incubation time 15 minutes to 24 hours. 0.2 ml samples of the reaction batch in each instance were mixed at different times with 0.2 ml 10% (w/v) trichloroacetic acid and the denatured protein centrifuged off for 10 minutes at 11,000 rpms in a table centrifuge. The supernatant was diluted with a 0.1M Na citrate buffer pH 2.2 with 25% (v/v) 2.2-thiodiethanol and 0.1% (v/v) phenol 1:5 and 1:50 respectively. The amino acids released were quantitatively detected by an amino-acid analyzer LC 5001 of the firm Biotronic, Maintal, Federal Republic of Germany. In Table 16, the substrates marked with * and the corresponding products were quantified by means of HPLC.
# The activity of the acylase was determined with various proline derivatives as under a).
SMILES,Hydrolysis by the acylase (in words),"Hydrolysis rate, times more rapid than N-acetyl-L-proline"
CC(=O)N1CC(O)C[C@H]1C(=O)O (stereo partly drawn) [N-acetyl-L-4-hydroxyproline],hydrolyzes,–
"O=C(O)C1CCCCN1C(=O)CCl (racemic) [ClAc--D,L-pipecolic acid, N-chloroacetyl-D,L-pipecolic acid]",reacted at a distinctly lower speed,–
COC(=O)[C@@H]1CCCN1C(C)=O [N-acetyl-L-proline methyl ester],not hydrolyzed,–
CCCC(=O)N1CCC[C@H]1C(=O)O [N-butyryl-L-proline],hydrolyzes,–
CCCCCC(=O)N1CCC[C@H]1C(=O)O [N-caproyl-L-proline],hydrolyzes,–
CCC(=O)N1CCC[C@H]1C(=O)O [N-propionyl-L-proline],hydrolyzes,–
"O=C(O)C1SCCN1C(=O)CCl (racemic) [ClAc--D,L-thiazolidine-2-carboxylic acid, N-chloroacetyl-DL-thiazolidine-2-carboxylic acid]",hydrolyzed especially well,–
O=C(O)[C@@H]1CSCN1C(=O)CCl [N-chloroacetyl-L-thiazolidine-4-carboxylic acid],hydrolyzes; also recorded: hydrolyzed especially well,–
O=C(O)[C@@H]1CCCN1C(=O)CCl [N-chloroacetyl-L-proline],hydrolyzes; also recorded: hydrolyzed especially well,about 3.6 times
O=CN1CCC[C@H]1C(=O)O [N-formyl-L-proline],hydrolyzes,–
NCC(=O)N1CCC[C@H]1C(=O)O [glycyl-L-proline] (H-Gly-Pro-OH),hydrolyzes,–
O=C(NCC(=O)N1CCC[C@H]1C(=O)O)OCc1ccccc1 [N-benzyloxycarbonyl-glycyl-L-proline] (Cbz-Gly-Pro-OH),hydrolyzes,–
CCCCC(=O)N1CCC[C@H]1C(=O)O [N-valeryl-L-proline],hydrolyzes,–
CC(=O)N1CCC[C@H]1C(N)=O [N-acetyl-L-prolineamide],not hydrolyzed,–
O=C(O)[C@@H]1SCCN1C(=O)CCl [N-chloroacetyl-L-thiazolidine-2-carboxylic acid],hydrolyzes,–
O=C(O)[C@@H]1CCCCN1C(=O)CCl [N-chloroacetyl-L-pipecolic acid],hydrolyzes,–

# Same assay, conditions: 20 mM substrate 1.0 ml in 2.0 ml batch, 30° C., pH 7.0; N-acetyl-L-proline = 100%; amino-acid analyzer
row,SMILES,Rel. activity (%)
1,"O=C(CCl)NC1(C(=O)O)CCCCC1 [ClAc--D,L-1-aminocyclohexanoic acid]",0
2,CC(=O)N[C@@H](Cc1ccc(O)cc1)C(=O)O [Ac--L--Tyr],0
3,O=C(O)[C@@H]1CSCN1C(=O)CCl [N-chloroacetyl-L-thiazolidine-4-carboxylic acid],462
4,O=C(O)[C@@H]1CCCN1C(=O)CCl [N-chloroacetyl-L-proline],362
5,CC(=O)N[C@@H](CS)C(=O)O [Ac--L--Cys],0
6,CC(=O)N[C@H](C(=O)O)C(C)C [Ac--L--Val],0.2
7,"CC(=O)NC(CO)C(=O)O (racemic) [Ac--D,L--Ser]",0.2
8,CC[C@H](C)[C@H](NC(=O)CCl)C(=O)O [ClAc--L--Ile],0.5

# Same assay, conditions: proline derivatives; 30° C., pH 7.0; N-acetyl-L-proline = 100%
row,SMILES,Relative Activity (%)
1,CC(=O)N1CC(O)C[C@H]1C(=O)O (stereo partly drawn) [N-acetyl-L-4-hydroxyproline],10
2,COC(=O)[C@@H]1CCCN1C(C)=O [N-acetyl-L-proline methyl ester],0
3,CCCC(=O)N1CCC[C@H]1C(=O)O [N-butyryl-L-proline],14
4,CCCCCC(=O)N1CCC[C@H]1C(=O)O [N-caproyl-L-proline],9
5,CCC(=O)N1CCC[C@H]1C(=O)O [N-propionyl-L-proline],29
6,CC(=O)N[C@@H](C)C(=O)N1CCC[C@H]1C(=O)O [Ac--L--Ala--L--Pro--OH] (Ac-Ala-Pro-OH),0
7,O=C(O)[C@@H]1CCCN1C(=O)CCl [N-chloroacetyl-L-proline],362
8,O=C(O)CNC(=O)[C@@H]1CCCN1 [H--L--Pro--Gly--OH] (H-Pro-Gly-OH),0
9,O=CN1CCC[C@H]1C(=O)O [N-formyl-L-proline],18
10,NCC(=O)N1CCC[C@H]1C(=O)O [glycyl-L-proline] (H-Gly-Pro-OH),4
11,NC(=O)[C@@H]1CCCN1 [H--L--Pro--NH2],0
12,O=C(NCC(=O)N1CCC[C@H]1C(=O)O)OCc1ccccc1 [N-benzyloxycarbonyl-glycyl-L-proline] (Cbz-Gly-Pro-OH),11
13,CCCCC(=O)N1CCC[C@H]1C(=O)O [N-valeryl-L-proline],15
14,C[C@H](NC(=O)[C@@H]1CCCN1C(=O)OCc1ccccc1)C(=O)O [Z--L--Pro--L--Ala--OH] (Cbz-Pro-Ala-OH),0
15,O=C(O)[C@@H]1CCCN1C(=O)OCc1ccccc1 [Z--L--Pro--OH],0
16,NC(=O)[C@@H]1CCCN1C(=O)OCc1ccccc1 [Z--L--Pro--NH2],0
17,CC(=O)N1CCC[C@H]1C(N)=O [N-acetyl-L-prolineamide],0
18,CC(C)(C)OC(=O)N1CCC[C@H]1C(=O)O [Boc--L--Pro--OH],0
19,C[C@H](N)C(=O)N1CCC[C@H]1C(=O)O [H--L Ala--L--Pro--OH] (H-Ala-Pro-OH),0
20,O=C(O)[C@H]1CCCN1C(=O)OCc1ccccc1 [Z--D--Pro--OH],0

# Same assay, conditions: quantified by HPLC; N-acetyl-L-proline = 100%
row,SMILES,Rel. activity (%)
1,CC(=O)N1CC[C@H]1C(=O)O [Ac--L-azetidine-2-carboxylic acid],0
2,O=C(O)[C@@H]1Cc2ccccc2N1C(=O)CCl [ClAc--L-indolin-2-carboxylic acid],0

# Same assay, conditions: substrate concentration 50 mM; quantified by HPLC; N-acetyl-L-proline = 100%
row,SMILES,Rel. activity (%)
1,"O=C(O)C1CCCCN1C(=O)CCl (racemic) [ClAc--D,L-pipecolic acid, N-chloroacetyl-D,L-pipecolic acid]",16
2,"O=C(O)C1SCCN1C(=O)CCl (racemic) [ClAc--D,L-thiazolidine-2-carboxylic acid, N-chloroacetyl-DL-thiazolidine-2-carboxylic acid]",202

# Tested on: N-acyl-L-proline acylase
# Experiment: not given
# Type: biochemical, Comamonas testosteroni DSM 5416
# Settings: not given
# Protocol: The enzymatic reaction was interrupted by pipetting 50 μl of the enzyme sample into 1.25 ml 100% acetic acid. Subsequently, 0.45 ml 0.1M tris-HCl buffer pH 7.0 and 1.25 ml ninhydrin reagent (3 g ninhydrin dissolved by heating in a mixture of 60 ml 100% acetic acid and 40 ml 6M phosphoric acid) were added. The ninhydrin reagent was freshly prepared daily. The test tubes were loosely closed with screw-on caps, incubated 30 minutes at 100° C. and subsequently cooled down in an ice bath.
# The L-proline, liberated by the enzymatic hydrolysis, forms a red dye with ninhydrin at 100° C. The absorption of the red dye was measured in a spectrophotometer at 480 nm relative to a control batch without crude extract (=substrate blank). The concentration of the L-proline produced was determined using a straight calibration line with L-proline in a range of 5 to 100 nmoles per 50 μl specimen. The enzyme activity was indicated in international units; thus, one unit (U) corresponded to an amount of 1 μmole L-proline produced per minute.
# The influence of various chemical agents as well as metal cations and anions on the reaction speed of the hydrolytic splitting of N-acetyl-L-proline was determined at 30° C. in a reaction batch with the following composition: […]
# The enzyme was pre-incubated for 10 minutes at 30° C. with the compound before the addition of substrate to start the reaction.
# The enzyme was pre-incubated for 10 minutes at 30° C. with the agent before the substrate was added to start the reaction.
# The enzyme was pre-incubated 10 minutes at 30° C. with the agent before the substrate was added to start the reaction. The concentration of the anions was 10 mM in each instance.
SMILES,Inhibiting mechanism,Activity (%),Influence on the acylase activity (in words)
O=P([O-])(O)O.[Na+] [NaH2 PO4],non-competitive,–,–
N[C@@H](CCC(=O)N[C@@H](CS)C(=O)NCC(=O)O)C(=O)O [Glutathione],–,116% and 135%,–
O=C(O)CI [Iodoacetate],–,97% and 77%,–
[Cl-].[Na+] [NaCl],–,99%,–
O=C(O)CN(CCN(CC(=O)O)CC(=O)O)CC(=O)O [EDTA],–,101% and 99%,–
O=C(O)O [Na2 CO3],–,75%,slightly inhibited
O=N[O-].[Na+] [NaNO2],–,71%,slightly inhibited

# Same assay, conditions: anion 10 mM; no agent = 100
row,SMILES,Activity (%)
1,O=P([O-])(O)O.[Na+] [NaH2 PO4],6
2,O=S(=O)([O-])[O-].[Na+].[Na+] [Na2 SO4],96
3,O=[N+]([O-])[O-].[K+] [KNO3],96

# Same assay, conditions: chemical agent 0.1 mM; 10 min pre-incubation at 30° C.
row,SMILES,Activity (%)
1,O=S(=O)(F)Cc1ccccc1 [PMSF],104

# Same assay, conditions: chemical agent 1 mM; 10 min pre-incubation at 30° C.; no agent = 100
row,SMILES,Activity (%)
1,O=C(O)CC(O)(CC(=O)O)C(=O)O [Na citrate],102
2,O=C([O-])c1cc[c]([Hg][Cl])cc1 [4-chloromercuribenzoate],85
3,O=S(=O)(F)Cc1ccccc1 [PMSF],130
4,"c1ccc(-c2ccccn2)nc1 [2,2-bipyridine]",102
5,NNC(N)=O [Semicarbazide],109
6,O=C([O-])c1cc[c]([Hg][OH])cc1 [4-hydroxymercuribenzoate],88
7,O[C@H](CS)[C@H](O)CS (racemic) [Dithiothreitol],129
8,NC(=O)CI [Iodoacetamide],104

# Same assay, conditions: chemical agent 10 mM; 10 min pre-incubation at 30° C.; no agent = 100
row,SMILES,Activity (%)
1,O=C(O)CC(O)(CC(=O)O)C(=O)O [Na citrate],102
2,O=C([O-])c1cc[c]([Hg][Cl])cc1 [4-chloromercuribenzoate],48
3,"c1ccc(-c2ccccn2)nc1 [2,2-bipyridine]",66
4,NNC(N)=O [Semicarbazide],95
5,O=C([O-])c1cc[c]([Hg][OH])cc1 [4-hydroxymercuribenzoate],41
6,O[C@H](CS)[C@H](O)CS (racemic) [Dithiothreitol],48
7,NC(=O)CI [Iodoacetamide],101

# Same assay, conditions: chemical agent 14 mM; 10 min pre-incubation at 30° C.
row,SMILES,Activity (%)
1,OCCS [2-mercaptoethanol],14

# Same assay, conditions: native enzyme
row,SMILES,Influence on the acylase activity (in words)
1,O=C([O-])c1cc[c]([Hg][Cl])cc1 [4-chloromercuribenzoate],inhibiting action; also recorded: significantly inhibit
2,O=C([O-])c1cc[c]([Hg][OH])cc1 [4-hydroxymercuribenzoate],inhibiting action; also recorded: significantly inhibit
3,OCCS [2-mercaptoethanol],inhibiting action; also recorded: significantly inhibit

# Same assay, conditions: native enzyme; listed as PO4^3-
row,SMILES,Influence on the acylase activity (in words)
1,O=P([O-])(O)O.[Na+] [NaH2 PO4],inhibiting action

# Same assay, conditions: native enzyme; listed as Phosphate
row,SMILES,Influence on the acylase activity (in words)
1,O=P([O-])(O)O.[Na+] [NaH2 PO4],inhibited

# Same assay, conditions: native enzyme; listed as phosphate
row,SMILES,Influence on the acylase activity (in words)
1,O=P([O-])(O)O.[Na+] [NaH2 PO4],sharply inhibited

# Source: patent US5219741A, “Method of making L-proline using an N-acyl-L-protine acylase” (priority 1990, dated 1993)
